Patent US8088814B2, “Methods and compositions for the treatment of psychiatric disorders” (priority 2001, dated 2012)
Like-named read-outs stand apart in the source and are kept apart here.

Key:
[1] = system: schizophrenic patients
Procedure: The statistics were performed according to the criterion of “last observation carried forward” (LOCF), i.e., the last PANSS scores of the patients who dropped out before the end of the study were carried forward to all subsequent observation days. For the comparison of the main efficacy parameter, the mean change in the PANSS between the two treatment groups, t-tests for independent samples were employed. […] For all other comparisons, two-tailed t-tests were used.

In the case of Cc1nc2n(c(=O)c1CCN1CCC(c3noc4cc(F)ccc34)CC1)CCCC2O (stereo not drawn) [9-OH-risperidone], the “differences in the plasma levels between risperidone-celecoxib and risperidone-placebo treatment” value (human, in vivo) is reported as “without statistical significance”.

For Cc1ccc(-c2cc(C(F)(F)F)nn2-c2ccc(S(N)(=O)=O)cc2)cc1 [celecoxib], the “treatment of depressive states” value ([1]; add-on celecoxib therapy in schizophrenic patients) was “useful”, the “PANSS items lack of contact, emotional isolation, passive-apathic isolation, social withdrawal, depression, motor retardation” value ([1]; detailed item analysis, good celecoxib-responders vs placebo group, add-on to risperidone) was “therapeutic effects” and the “factor analysis: items subsumed under the label agitation” value ([1]; response to celecoxib but not to placebo, add-on to risperidone) was “good therapeutic response”.

With risperidone [placebo and risperidone] the “differences in the plasma levels between risperidone-celecoxib and risperidone-placebo treatment” value (plasma, during the study (FIG. 4)) was “without statistical significance”, the PANSS global score ([1]; at the start of the study) was 37.2±7.1 and the PANSS negative score ([1]; at the start of the study) was 21.1±5.5. The PANSS total score ([1]; at the start of the study) was 75.4±12.9, the PANSS positive score ([1]; week 0 (start of the study), mean ± SD, 25 patients per group) was 17.2 ± 4.6 and the PANSS positive score ([1]; week 0 (start of the study), mean ± SD, 25 patients per group, listed as risperidone-placebo) was 17.2±4.6. The PANSS positive score ([1]; week 1, LOCF) was 16.2 ± 4.6, the PANSS positive score ([1]; week 2, LOCF) was 15 ± 4.5 and the PANSS positive score ([1]; week 3, LOCF) was 14.5 ± 4.6. The PANSS positive score ([1]; week 4, LOCF) was 14.2 ± 4.4 and the PANSS positive score ([1]; week 5, LOCF) was 13.3 ± 4.4.
